Entries after “also recorded” stand apart in the source; their conditions may differ. Read-outs that look alike come from different tables or passages of the source.
Assays:
[1] = test system: human histone H4c gene (radiolabeled PCR product); format: biochemical
[2] = test system: SW620 colon carcinoma cells
[3] = test system: SW620 colon carcinoma cells; test: Growth arrest / cell counts of SW620 cells; format: cell-based, human; details: for Growth arrest: SW620 cells, based on cell counts, 0.5 μM
Procedure: (§1) Chemotherapeutic molecules, such as DNA alkylators, topoisomerase inhibitors or histone deacetylase inhibitors, alter the morphology and growth characteristics of cancer cells in culture. […] Cells were transfected with 25-100 nM siRNA using the Silencer™ siRNA Transfection Kit (Ambion, Inc.). Cell growth and morphology change were evaluated 72 or 96 hr after transfection by counting cells in a hemocytometer, and by visually inspecting cells in a phase contrast microscope.

SW620 cells [4] = format: cell-based, human; details: SW620 cells pre-treated, grown without polyamide up to two weeks
Procedure: Soft agar assays were performed in 6-well culture dishes using SeaPlaque low-melting temperature agarose (Cambrex Bio Science Rocklarid, Inc.). The cell growth medium was supplemented with 20% fetal bovine serum. Cells were treated for 5 days with or without polyamide, harvested by trypsin treatment, and counted using a hemocytometer. […] Cells were gently mixed by pipetting and quickly transferred to the culture dish containing a thin layer (0.5 ml) of solidified 0.5% agarose in medium. Cultures were incubated for 1-2 weeks prior to visualization by microscopy.
Equal numbers of untreated and polyamide-treated cells were inoculated into soft agar (without polyamide), and grown for up to two weeks.

SW620 cells [5] = test: Affymetrix U133A microarray analysis of genomic transcription; format: cell-based, human; details: 0.5 μM, 72 hr
Procedure: Total RNA from SW620 cells from four pooled culture wells from triplicate experiments was isolated using a Qiagen RNeasy™ Midi kit according to the manufacturer's instructions. […]. Microarray experiments were performed at the DNA Array Core Facility of The Scripps Research Institute using Affymetrix Genechip® Human Genome U133A chips. Data were analyzed using Affymetrix MicroArray® Suite (MAS 5.0) software. RMA values for probe sets were analyzed using Significance Analysis of Microarrays (SAM) 1.21 software (Stanford University).
The effects of polyamide treatment on genomic transcription were monitored by DNA microarray analysis using Affymetrix high-density U133A arrays, which contain oligonucleotides representing approximately 18,000 human genes. […]. Total RNA was isolated, converted into fluorescent cRNA and hybridized to the oligonucleotide microarrays. […]

[6] = test system: SW620 colon carcinoma cells; test: Cell morphology change of SW620 cells (phase contrast microscopy); format: cell-based, human; details: for Cell morphology change: SW620 cells, 0.5 μM
Procedure: as §1

K562 [7] = test: G2/M cell cycle arrest by FACS analysis; format: cell-based, human
H4c mRNA in K562 = format: cell-based, human
Procedure: (§2) Quantitative real-time RT-PCR was performed using QuantiTect™ SYBR® Green RT-PCR (Qiagen) as described. […] Temperature cycling and detection of the SYBR® Green emission was performed with a Cepheid SmartCycler® system. Statistical analysis was performed on three independent quantitative RT-PCR experiments for each RNA sample.

K562 [8] = test: Growth inhibition; format: cell-based, human
SW620 cells [9] = test: Nuclear structure, Hoechst staining and fluorescence microscopy; details: polyamide 0.5 μM for 72 hours or siRNA transfection
v-Myb = test: qRT-PCR of v-Myb expression; format: cell-based
[10] = test system: histone H4c mRNA in SW620 cells; test: Real-time quantitative RT-PCR of H4c mRNA; format: cell-based, human
Procedure: as §2

[11] = SW620, 25-100 nM siRNA, 72 or 96 hr

In the case of Cc1cc(C)n2c1C=C1C=CC(CCCCC(=O)N[C@@H](CCNC(=O)c3nc(NC(=O)CCNC(=O)c4nc(NC(=O)c5nccn5C)cn4C)cn3C)C(=O)Nc3cc(C(=O)Nc4cc(C(=O)Nc5cc(C(=O)Nc6cc(C(=O)NCCC(=O)NCCCN(C)C)n(C)c6)n(C)c5)n(C)c4)n(C)c3)=[N+]1[B-]2(F)F [1S-bodipy], the “entry into the nucleus” value (SW620 cell line) is reported as “entered the nucleus”.

With CN(C)CCCNC(=O)CCNC(=O)c1cc(NC(=O)c2cc(NC(=O)c3cc(NC(=O)c4cc(NC(=O)[C@@H](CCNC(=O)c5cc(NC(=O)c6nc(NC(=O)c7cc(NC(=O)c8nccn8C)cn7C)cn6C)cn5C)NC(=O)CCCc5ccc(N(CCCl)CCCl)cc5)cn4C)cn3C)cn2C)cn1C [5-Chl] the “alkylation of the H4c PCR product on either strand” value [1] was “fail to significantly alkylate”, the cytotoxicity [2] was “highly cytotoxic” and the Growth arrest [3] was “cytotoxic”.

In the case of O=C(O)CCCc1ccc(N(CCCl)CCCl)cc1 [Chl, chlorambucil, reference compound], the “growth in soft agar” value (SW620 cells [4]) is reported as “formed colonies”, the “genes whose transcription was affected” value (SW620 cells [5]) is reported as “a large number of genes” and the Cell morphology change [6] is reported as “without effect”. The cytotoxicity ([2]; concentrations higher than 0.5 μM) was “cytotoxic at higher concentrations” and the Growth arrest [3] was “without effect”.

For CN(C)CCCNC(=O)CCNC(=O)c1cc(NC(=O)c2cc(NC(=O)c3cc(NC(=O)c4cc(NC(=O)[C@@H](CCNC(=O)c5cc(NC(=O)c6cc(NC(=O)c7cc(NC(=O)c8nccn8C)cn7C)cn6C)cn5C)NC(=O)CCCc5ccc(N(CCCl)CCCl)cc5)cn4C)cn3C)cn2C)cn1C [4-Chl], the “alkylation of the H4c PCR product on either strand” value [1] was “fail to significantly alkylate”, the cytotoxicity [2] was “highly cytotoxic” and the Growth arrest [3] was “cytotoxic”.

With CN(C)CCCNC(=O)CCNC(=O)c1cc(NC(=O)c2nc(NC(=O)CCNC(=O)c3cc(NC(=O)c4cc(NC(=O)[C@@H](CCNC(=O)c5cc(NC(=O)c6nc(NC(=O)CCNC(=O)c7cc(NC(=O)c8nccn8C)cn7C)cn6C)cn5C)NC(=O)CCCc5ccc(N(CCCl)CCCl)cc5)cn4C)cn3C)cn2C)cn1C [2-Chl, ImPy-βImPy-(R-2,4-Daba^Chl)-PyPyβImPy-βDp] the Cell morphology change [6] was “no” and the Growth arrest [3] was “no”.

CN(C)CCCNC(=O)CCNC(=O)c1cc(NC(=O)c2cc(NC(=O)c3cc(NC(=O)c4nc(NC(=O)C(CCNC(=O)c5cc(NC(=O)c6cc(NC(=O)c7nc(NC(=O)c8nccn8C)cn7C)cn6C)cn5C)NC(=O)CCCc5ccc(N(CCCl)CCCl)cc5)cn4C)cn3C)cn2C)cn1C (stereo not drawn) [ImImPyPy-(R-2,4-Daba^Chl)-ImPyPyPy-β-Dp] was tested, and the “alkylation of the H4c gene in vitro” value ([1]; sites of the form 5′-WGGWCN-3′) was “alkylate multiple sites in the H4c gene”, the cell cycle arrest (K562 [7]) was “causes growth and cell cycle arrest” and the “effect on H4c gene transcription” value (H4c mRNA in K562) was “down regulates H4c gene transcription”. The Growth arrest (K562 [8]) was “causes growth and cell cycle arrest”.

For CN(C)CCCNC(=O)CCNC(=O)c1cc(NC(=O)c2cc(NC(=O)c3cc(NC(=O)c4cc(NC(=O)[C@@H](CCNC(=O)c5nc(NC(=O)c6nc(NC(=O)c7cc(NC(=O)c8nccn8C)cn7C)cn6C)cn5C)NC(=O)CCCc5ccc(N(CCCl)CCCl)cc5)cn4C)cn3C)cn2C)cn1C [6-Chl], the Cell morphology change [6] was “abolished the morphological change and growth arrest and no” and the Growth arrest [3] was “abolished the morphological change and growth arrest; also recorded: slight”.

For “5′-GGGCAUUACAAAACCGGCUtt-3′ [HIST1H4C-1]”, the “effect on size of the cell nucleus” value (SW620 cells [9]) was “caused a similar enlargement of the cell nucleus”, the “cell morphology change after siRNA transfection” value [6, 11] was “caused a morphological change” and the “effect on v-Myb transcription / expression” value (v-Myb) was “down regulated v-Myb transcription”. The “down regulation of H4c mRNA compared to scrambled sequence siRNA” value ([10]; SW620, quantitative RT-PCR) was roughly 8.6 fold, the “down regulation of H4c transcription sufficient to cause growth arrest” value ([10]; SW620 cells) was 2 fold and the “cell number / growth after siRNA transfection” value [3, 11] was “decreased”. The “reduction in cell number relative to untreated cells” value ([3]; SW620, after 3 days) was 73 (+1-5) % and the Relative cell number ([3]; SW620, siRNA transfection, untreated = 100%) was 37%.

For Cc1cc(C)n2c1C=C1C=CC(CCCCC(=O)N[C@H](CCNC(=O)c3nc(NC(=O)CCNC(=O)c4nc(NC(=O)c5nccn5C)cn4C)cn3C)C(=O)Nc3cc(C(=O)Nc4cc(C(=O)Nc5cc(C(=O)Nc6cc(C(=O)NCCC(=O)NCCCN(C)C)n(C)c6)n(C)c5)n(C)c4)n(C)c3)=[N+]1[B-]2(F)F [1R-bobipy], the “entry into the nucleus” value (SW620 cell line) was “entered the nucleus”.

Reference: patent US20060019972A1, “Methods of treating cancer by inhibiting histone gene expression” (California Institute of Technology, priority 2004, published 2006)
